Source: the CheMixHub viscosity set
Several values for one entry are separate records, joined by “and”; a condition that tells them apart may be missing. Equal values may be shown once.

Assay: xn = mol fraction of the nth substance listed

CCCCCCO + c1ccccc1
Conditions	viscosity [mPa·s]
293.15 K, 100 kPa, x2 = 0.0814	4.394
293.15 K, 100 kPa, x2 = 0.1623	3.612
293.15 K, 100 kPa, x2 = 0.2401	3.045
293.15 K, 100 kPa, x2 = 0.3536	2.371
293.15 K, 100 kPa, x2 = 0.4411	1.932
293.15 K, 100 kPa, x2 = 0.5516	1.507
293.15 K, 100 kPa, x2 = 0.6465	1.218
293.15 K, 100 kPa, x2 = 0.7441	0.979
293.15 K, 100 kPa, x2 = 0.8425	0.828
293.15 K, 100 kPa, x2 = 0.9324	0.728
298.15 K, 101 kPa, x1 = 0.04	0.615
298.15 K, 101 kPa, x1 = 0.078	0.633
298.15 K, 101 kPa, x1 = 0.12	0.663
298.15 K, 101 kPa, x1 = 0.16	0.709
298.15 K, 101 kPa, x1 = 0.34	0.98
298.15 K, 101 kPa, x1 = 0.43	1.195
298.15 K, 101 kPa, x1 = 0.53	1.505
298.15 K, 101 kPa, x1 = 0.75	2.444
303 K, 101.33 kPa, x1 = 0.1001	0.6115
303 K, 101.33 kPa, x1 = 0.2002	0.7018
303 K, 101.33 kPa, x1 = 0.3	0.8271
303 K, 101.33 kPa, x1 = 0.4002	0.9916
303 K, 101.33 kPa, x1 = 0.5004	1.198
303 K, 101.33 kPa, x1 = 0.6012	1.498
303 K, 101.33 kPa, x1 = 0.6985	1.883
303 K, 101.33 kPa, x1 = 0.8	2.387
303 K, 101.33 kPa, x1 = 0.8982	2.971
303.15 K, 100 kPa, x2 = 0.0814	3.292
303.15 K, 100 kPa, x2 = 0.1623	2.773
303.15 K, 100 kPa, x2 = 0.2401	2.333
303.15 K, 100 kPa, x2 = 0.3536	1.832
303.15 K, 100 kPa, x2 = 0.4411	1.514
303.15 K, 100 kPa, x2 = 0.5516	1.175
303.15 K, 100 kPa, x2 = 0.6465	0.951
303.15 K, 100 kPa, x2 = 0.7441	0.797
303.15 K, 100 kPa, x2 = 0.8425	0.684
303.15 K, 100 kPa, x2 = 0.9324	0.604
313 K, 101.33 kPa, x1 = 0.1001	0.5329
313 K, 101.33 kPa, x1 = 0.2002	0.6064
313 K, 101.33 kPa, x1 = 0.3	0.7078
313 K, 101.33 kPa, x1 = 0.4002	0.8581
313 K, 101.33 kPa, x1 = 0.5004	0.9873
313 K, 101.33 kPa, x1 = 0.6012	1.194
313 K, 101.33 kPa, x1 = 0.6985	1.49
313 K, 101.33 kPa, x1 = 0.8	1.852
313 K, 101.33 kPa, x1 = 0.8982	2.274
313.15 K, 100 kPa, x2 = 0.0814	2.463
313.15 K, 100 kPa, x2 = 0.1623	2.077
313.15 K, 100 kPa, x2 = 0.2401	1.772
313.15 K, 100 kPa, x2 = 0.3536	1.428
313.15 K, 100 kPa, x2 = 0.4411	1.201
313.15 K, 100 kPa, x2 = 0.5516	0.954
313.15 K, 100 kPa, x2 = 0.6465	0.789
313.15 K, 100 kPa, x2 = 0.7441	0.661
313.15 K, 100 kPa, x2 = 0.8425	0.581
313.15 K, 100 kPa, x2 = 0.9324	0.525
323 K, 101.33 kPa, x1 = 0.1001	0.4717
323 K, 101.33 kPa, x1 = 0.2002	0.53
323 K, 101.33 kPa, x1 = 0.3	0.613
323 K, 101.33 kPa, x1 = 0.4002	0.7007
323 K, 101.33 kPa, x1 = 0.5004	0.8259
323 K, 101.33 kPa, x1 = 0.6012	0.9863
323 K, 101.33 kPa, x1 = 0.6985	1.209
323 K, 101.33 kPa, x1 = 0.8	1.467
323 K, 101.33 kPa, x1 = 0.8982	1.768
323.15 K, 100 kPa, x2 = 0.0814	1.934
323.15 K, 100 kPa, x2 = 0.1623	1.654
323.15 K, 100 kPa, x2 = 0.2401	1.411
323.15 K, 100 kPa, x2 = 0.3536	1.135
323.15 K, 100 kPa, x2 = 0.4411	0.962
323.15 K, 100 kPa, x2 = 0.5516	0.781
323.15 K, 100 kPa, x2 = 0.6465	0.656
323.15 K, 100 kPa, x2 = 0.7441	0.568
323.15 K, 100 kPa, x2 = 0.8425	0.5
323.15 K, 100 kPa, x2 = 0.9324	0.458

CCOCC + c1ccccc1
Conditions	viscosity
293.15 K, 101 kPa, x2 = 0.24	0.3 mPa·s
293.15 K, 101 kPa, x2 = 0.49	0.381 mPa·s
293.15 K, 101 kPa, x2 = 0.74	0.482 mPa·s
293.15 K, 101.33 kPa, x1 = 0.2	0.504 mPa·s and 0.504 mPa·s
293.15 K, 101.33 kPa, x1 = 0.4	0.407 mPa·s
293.15 K, 101.33 kPa, x1 = 0.5	0.371 mPa·s and 0.371 mPa·s
293.15 K, 101.33 kPa, x1 = 0.6	0.339 mPa·s
293.15 K, 101.33 kPa, x1 = 0.8	0.289 mPa·s
298.15 K, 101 kPa, x1 = 0.2529	0.438 mPa·s
298.15 K, 101 kPa, x1 = 0.4438	0.362 mPa·s
298.15 K, 101 kPa, x1 = 0.7248	0.282 mPa·s
298.15 K, 101 kPa, x2 = 0.24	0.288 mPa·s
298.15 K, 101 kPa, x2 = 0.275	0.282 mPa·s
298.15 K, 101 kPa, x2 = 0.49	0.366 mPa·s
298.15 K, 101 kPa, x2 = 0.5563	0.362 mPa·s
298.15 K, 101 kPa, x2 = 0.74	0.455 mPa·s
298.15 K, 101 kPa, x2 = 0.7471	0.438 mPa·s
303.15 K, 101 kPa, x2 = 0.24	0.278 mPa·s
303.15 K, 101 kPa, x2 = 0.49	0.346 mPa·s
303.15 K, 101 kPa, x2 = 0.74	0.43 mPa·s
308.15 K, 101 kPa, x2 = 0.49	0.322 mPa·s
308.15 K, 101 kPa, x2 = 0.74	0.408 mPa·s

O=C1CCCCC1 + c1ccccc1
viscosity [mPa·s]
Conditions	298.15 K	303.15 K	308.15 K
101 kPa, x1 = 0.0989	0.674	–	–
101 kPa, x1 = 0.1983	0.731	–	–
101 kPa, x1 = 0.2984	0.8	–	–
101 kPa, x1 = 0.3848	0.865	–	–
101 kPa, x1 = 0.5166	0.856	–	–
101 kPa, x1 = 0.5909	1.086	–	–
101 kPa, x1 = 0.6876	1.37	–	–
101 kPa, x1 = 0.7775	1.481	–	–
101 kPa, x1 = 0.8574	1.534	–	–
101.33 kPa, x1 = 0.1014	0.661	0.616	0.574
101.33 kPa, x1 = 0.1996	0.726	0.676	0.629
101.33 kPa, x1 = 0.3037	0.803	0.747	0.694
101.33 kPa, x1 = 0.4039	0.888	0.824	0.771
101.33 kPa, x1 = 0.502	0.996	0.942	0.85
101.33 kPa, x1 = 0.5997	1.122	1.026	0.945
101.33 kPa, x1 = 0.7018	1.28	1.175	1.084
101.33 kPa, x1 = 0.8023	1.472	1.346	1.236
101.33 kPa, x1 = 0.9237	1.773	1.61	1.472
